We go through 4 compounds from patent publication US5324722A, “2-, 3-, 5-, 8-, 10- and/or 11-substituted dibenzoxazepine compounds, pharmaceutical compositions and methods for treating pain” (G. D. Searle & Co., priority 1993, dated 1994).

For one test, the system named is mice. Put plainly: Writhing Assay (PBQ-induced writhing). The format is in vivo. To be noted: for WRITHING ASSAY Number Out of Ten I.G. / WRITHING ASSAY Number Out of Ten S.C.: number of mice out of ten with analgesia, 30 minutes before PBQ i.p., male albino mice; for WRITHING ASSAY Number Out of Ten I.G.: 30 mg per kilogram intragastric; for WRITHING ASSAY Number Out of Ten S.C.: 30 mg per kilogram subcutaneous. The source says: The Writhing Assay is one of the most widely-used experimental procedures for measuring the analgesic activity of different narcotic and nonnarcotic analgesic agents, and involves the continuous, chemically-induced pain of visceral origin to an animal, such as a mouse orrat. [Gyires et al., Arch. int. Pharmacodyn, 267, 131-140 (1984); C. Vander Wende et al., Fed. Proc., 15, 494 (1956); Koster et al., Fed. Proc., 18, 412 (1959); and Witken et al., J. Pharmacol. exp. Ther., 133, 400-408 (1961).] Chemicals which may be used to induce this pain include phenylbenzoquinone (PBQ) and acetic acid. As a result of the chemical irritation to the animal, a characteristic stretching and writhing of the animal (dorsiflexion of the animal's back, extension of its hindlimbs and the strong contraction of its abdominal musculature) will generally occur. […] Drugs which reduce the number of writhes of the animal appear to restore the normal nociceptive threshold of the animal.
Charles River male albino mice, weighing 20 to 30 grams were used in this assay.
Thirty minutes after subcutaneous or intragastric administration to ten mice of 30 mg per kilogram of body weight of a compound of the present invention ("test compound"), […] per 10 g of body weight of a 0.025% w/v solution of PBQ was injected intraperitoneally into each mouse. Ten mice which were given saline in place of a test compound of the invention were used as a control group.
Five minutes later, each mouse was individually placed into a glass beaker for observation, and the number of writhes occurring during the following ten-minute period was counted.
A test compound was considered to have produced analgesia in a mouse if, in accordance with the conditions set forth above, and under the test criteria employed for this assay, after the administration of 30 mg per kilogram of body weight of a compound of the present invention to the mouse, the number of writhes elicited by a mouse injected with PBQ was equal to, or less than, one-half the median number of writhes recorded for the saline-treated control group of mice that day, as described by Taber in "Predictive Value of Analgesic Assays in Mice and Rats," Advances in BiochemicaI Psychopharmacology, 8, 191 (1974).
The results for the particular compounds of the present invention analyzed in this assay, and discussed in the examples identified below which correspond thereto, are presented in Table 1 hereinbelow under the heading "WRITHING ASSAY." The numbers in fractions indicate the number of mice out of ten in which a test compound produced analgesia. […] (b) Prostaglandin (PGE) Antagonism Assay

The target of test [1] is T1, prostaglandin E2-induced contractions of segments of guinea pig ileum (Cavia porcellus, UniProt A0A286XHJ6).
T1 construct: Segments of ileum about 2 cm long were then cut and mounted in a 10 mL tissue bath; from tissue; host or cells: guinea pig ileum segments
T1 sequence (A0A286XHJ6 1-405): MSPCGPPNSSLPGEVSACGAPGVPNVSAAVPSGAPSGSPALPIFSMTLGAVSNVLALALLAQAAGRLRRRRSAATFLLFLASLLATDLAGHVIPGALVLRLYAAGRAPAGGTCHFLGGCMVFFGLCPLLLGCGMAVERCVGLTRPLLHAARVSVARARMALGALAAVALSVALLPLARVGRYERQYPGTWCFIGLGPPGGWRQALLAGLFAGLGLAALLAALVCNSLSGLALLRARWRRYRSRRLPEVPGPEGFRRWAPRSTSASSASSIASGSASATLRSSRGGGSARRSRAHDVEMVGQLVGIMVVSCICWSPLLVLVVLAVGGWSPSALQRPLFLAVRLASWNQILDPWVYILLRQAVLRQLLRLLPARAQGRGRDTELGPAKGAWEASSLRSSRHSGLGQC
Description: Prostaglandin (PGE) Antagonism Assay in guinea pig ileum. The format is cell-based. The settings on record: pA2 against prostaglandin E2-induced contractions; initial concentration 3 micromolar; estimated or by Schild plot. The method, then:
In order to determine the effectiveness of several of the compounds of the present invention ("test compounds") as prostaglandin E2 antagonists,a prostaglandin antagonism assay was conducted, as described below, to determine the ability of these compounds to inhibit prostaglandin E2 -induced contractions of segments of guinea pig ileum.
Male albino guinea pigs weighing 200 to 500 grams were sacrificed by cervical dislocation. The ilea were then quickly removed from the guinea pigs and placed in a modified Tyrode solution, a solution which is known to those skilled in the art, containing one-half of the usual amount of magnesium ions.
Segments of ileum about 2 cm long were then cut and mounted in a 10 mL tissue bath containing the modified Tyrode solution. The solution was maintained at 37° C. and aerated with a gaseous mixture of 95% oxygen and 5% carbon dioxide. Data for a control prostaglandin E2 dose response curve plotting concentration of prostaglandin E2 versus the intensity of contractions, detected isotonically, was then obtained by experimentally adjusting the dose of the prostaglandin E2 being injected into the tissue bath, in a manner known by those of skill in the art.
Solutions or suspensions containing an initial concentration (3 micromolar) of a test compound in modified Tyrode solution ("test solutions/suspensions") were then separately substituted for the control bath solution. Each test solution/suspension was then kept in constant contact with the ileum tissue, except for brief periods to drain the bath in preparation for rinsing with fresh test solution/suspension. A second prostaglandin E2 dose response curve was then generated for prostaglandin E2 in the presence of a test compound.
A dose ratio of EC50 doses was then calculated from the results of each test in a manner known by those of skill in the art. A test compound was determined to be "active" if the initial concentration used yielded at least a two-fold shift (dose ratio greater than or equal to 2) in the dose response curve for 10 prostaglandin E2.

`CCS(=O)(=O)CCC(=O)NNC(=O)C1c2ccccc2Oc2ccc(Cl)cc2N1C(=O)OC(C)(C)C` (stereo not drawn) [Example 7, 8-chlorodibenz[b,f][1,4]oxazepine-10,11(11H)-dicarboxylic acid, 10-(1,1-dimethylethyl) ester, 11-[2-[3-(ethylsulfonyl)-1-oxopropyl]hydrazide]]: the “relative analgesic potency in the Writhing Assay” value with mice (among the compounds of the invention tested, 30 mg per kilogram, mice) is recorded as “most potent”. For the same compound, in the test with mice, the “WRITHING ASSAY Number Out of Ten I.G.” value is given as 5/10 and the “WRITHING ASSAY Number Out of Ten S.C.” value is recorded as 3/10.
Turning to `CCS(=O)(=O)CCC(=O)NNC(=O)N1c2cc(Cl)ccc2Oc2ccccc2C1C` (stereo not drawn) [Example 13, 8-chloro-11-methyldibenz[b,f][1,4]oxazepine-10(11H)-carboxylic acid, 2-[3-(ethylsulfonyl)-1-oxopropyl]hydrazide], in the test with mice, the “WRITHING ASSAY Number Out of Ten I.G.” value was 5/10 and the “WRITHING ASSAY Number Out of Ten S.C.” value is on record as 5/10. For the same compound, the “PGE ANTAGONISM IN GUINEA PIG ILEUM (pA2 value)” value in test [1] is 6.03.
`CCC1c2ccccc2Oc2ccc(Cl)cc2N1C(=O)NNC(=O)CCS(=O)(=O)CC` (stereo not drawn) [Example 17, 8-chloro-11-ethyldibenz[b,f][1,4]oxazepine-10(11H)-carboxylic acid, 2-[3-(ethylsulfonyl)-1-oxopropyl]hydrazide]: in the test with mice, the “WRITHING ASSAY Number Out of Ten I.G.” value is reported as 1/10 and the “WRITHING ASSAY Number Out of Ten S.C.” value is reported as 2/10. The Kb in test [1] is 1290 nM.
As to `CCCC1c2ccccc2Oc2ccc(Cl)cc2N1C(=O)NNC(=O)CCS(=O)(=O)CC` (stereo not drawn) [Example 21, 8-chloro-11-propyldibenz[b,f][1,4]oxazepine-10(11H)-carboxylic acid. 2-[3-(ethylsulfonyl)-1-oxopropyl]hydrazide], in the test on mice, the “WRITHING ASSAY Number Out of Ten I.G.” value is given as 3/10 and the “WRITHING ASSAY Number Out of Ten S.C.” value is on record as 1/10. Also, the “PGE ANTAGONISM IN GUINEA PIG ILEUM (pA2 value)” value in test [1] is recorded as 5.94.

As usually defined, the Kb is the affinity of an antagonist, worked out from how it opposes an agonist.
